The results in this text go back to ChEMBL document CHEMBL4627407, “Identification of a Potent Oridonin Analogue for Treatment of Triple-Negative Breast Cancer” (J Med Chem, 2020).

What all share (type): functional, cell-based
One experiment relates to MDA-MB-231. As to the kind of experiment: Antiproliferative activity against human MDA-MB-231 cells after 72 hrs by MTT assay. The conditions noted are these: MDA-MB-231, 72 h. (In general: Formazan colour is commonly taken as a measure of viable cells.)
For the next experiment, the system named is HCC1806. Briefly: Antiproliferative activity against human HCC1806 cells after 72 hrs by MTT assay. Conditions: HCC1806, 72 h.
The next experiment deals with DU-4475. As to the kind of experiment: Antiproliferative activity against human DU4475 cells after 72 hrs by MTT assay. The conditions noted are these: DU-4475, 72 h.
For another experiment, the system named is MDA-MB-468. Briefly: Antiproliferative activity against human MDA-MB-468 cells after 72 hrs by MTT assay. The conditions noted are these: MDA-MB-468, 72 h.

Take `C=C1C(=O)[C@@]23C(=O)[C@@H]4OC[C@]5(C=CCC(C)(C)[C@@H]45)[C@@H]2CC[C@@H]1[C@H]3OC(=O)/C=C/c1ccnc(F)c1`: the IC50 (in general, the concentration that inhibits the measured activity by half) in the experiment on MDA-MB-231 came out at 700 nM; in the experiment with HCC1806, 1120 nM; with DU-4475, 940 nM; in the experiment on MDA-MB-468, 1030 nM.

`C=C1C(=O)[C@@]23C(=O)[C@@H]4OC[C@]5(C=CCC(C)(C)[C@@H]45)[C@@H]2CC[C@@H]1[C@H]3OC(=O)/C=C/c1ccnc(Cl)c1`: the IC50 amounted to 1350 nM in the experiment with MDA-MB-231, 2090 nM with HCC1806, 1710 nM with DU-4475 and 1600 nM in the experiment on MDA-MB-468.

Turning to `C=C1C(=O)[C@@]23C(=O)[C@@H]4OC[C@]5(C=CCC(C)(C)[C@@H]45)[C@@H]2CC[C@@H]1[C@H]3OC(=O)c1ccc2ncccc2c1`, the IC50 in the experiment on MDA-MB-231 was found to be 2110 nM; with HCC1806 it was 2670 nM; with DU-4475, 2590 nM; in the experiment with MDA-MB-468, 2560 nM.

Consider `C=C1C(=O)[C@@]23C(=O)[C@@H]4OC[C@]5(C=CCC(C)(C)[C@@H]45)[C@@H]2CC[C@@H]1[C@H]3OC(=O)c1ccccn1`, for which the IC50 is 1120 nM in the experiment with MDA-MB-231, 710 nM in the experiment on HCC1806, 780 nM with DU-4475 and 1470 nM with MDA-MB-468.

As for `C=C1C(=O)[C@@]23C(=O)[C@@H]4OC[C@]5(C=CCC(C)(C)[C@@H]45)[C@@H]2CC[C@@H]1[C@H]3OC(=O)c1ccncn1`, the IC50 in the experiment with MDA-MB-231 was found to be 640 nM; in the experiment on HCC1806, 740 nM; in the experiment on DU-4475 it was 850 nM; with MDA-MB-468, 850 nM.

`C=C1C(=O)[C@@]23C(=O)[C@@H]4OC[C@]5(C=CCC(C)(C)[C@@H]45)[C@@H]2CC[C@@H]1[C@H]3OC(=O)/C=C(\C)c1ccccc1`: the IC50 in the experiment with MDA-MB-231 was 1480 nM; in the experiment with HCC1806 it was 1850 nM; in the experiment with DU-4475, 2440 nM; with MDA-MB-468, 1990 nM.

On to `C=C1C(=O)[C@@]23C(=O)[C@@H]4OC[C@]5(C=CCC(C)(C)[C@@H]45)[C@@H]2CC[C@@H]1[C@H]3OC(=O)/C=C/c1ccncc1F`, for which the IC50 with MDA-MB-231 is 850 nM; with HCC1806, 1140 nM; in the experiment on DU-4475 it was 1100 nM; in the experiment on MDA-MB-468, 1040 nM.

For the compound `C=C1C(=O)[C@@]23C(=O)[C@@H]4OC[C@]5(C=CCC(C)(C)[C@@H]45)[C@@H]2CC[C@@H]1[C@H]3OC(=O)/C=C/c1ccc(OC)cc1`, the IC50 was 1310 nM in the experiment with MDA-MB-231, 1960 nM in the experiment with HCC1806, 2320 nM in the experiment with DU-4475 and 2290 nM in the experiment on MDA-MB-468.

As for `C=C1C(=O)[C@@]23C(=O)[C@@H]4OC[C@]5(C=CCC(C)(C)[C@@H]45)[C@@H]2CC[C@@H]1[C@H]3OC(=O)/C=C/c1cncnc1`, the IC50 was 1080 nM in the experiment with MDA-MB-231, 770 nM with HCC1806, 620 nM in the experiment on DU-4475 and 840 nM with MDA-MB-468.

Regarding `C=C1C(=O)[C@@]23C(=O)[C@@H]4OC[C@]5(C=CCC(C)(C)[C@@H]45)[C@@H]2CC[C@@H]1[C@H]3OC(C)=O`, the IC50 in the experiment with MDA-MB-231 was 960 nM; with HCC1806, 1000 nM; with DU-4475, 750 nM; with MDA-MB-468, 790 nM.

On to `C=C1C(=O)[C@]23[C@H](O)[C@H]1CC[C@H]2[C@]12CCCC(C)(C)[C@H]1C[C@@]3(O)OC2`, for which the IC50 was 3440 nM in the experiment with MDA-MB-231, 2920 nM with HCC1806, 1880 nM with DU-4475 and 2450 nM with MDA-MB-468.

Take `C=C1C(=O)[C@@]23C(=O)[C@@H]4OC[C@@]5([C@H]4C(C)(C)CC[C@@H]5O)[C@@H]2CC[C@@H]1[C@H]3O`: the IC50 in the experiment on MDA-MB-231 was determined as 1680 nM; in the experiment on HCC1806 it was 2420 nM; in the experiment on DU-4475 it was 1370 nM; in the experiment with MDA-MB-468 it was 2400 nM.

For the compound `C=C1C(=O)[C@@]23C(=O)[C@@H]4OC[C@]5(C=CCC(C)(C)[C@@H]45)[C@@H]2CC[C@@H]1[C@H]3OC(=O)/C=C/c1ccncc1Cl`, the IC50 amounted to 640 nM in the experiment with MDA-MB-231, 820 nM with HCC1806, 860 nM in the experiment on DU-4475 and 850 nM with MDA-MB-468.

Regarding `C=C1C(=O)[C@@]23C(=O)[C@@H]4OC[C@]5(C=CCC(C)(C)[C@@H]45)[C@@H]2CC[C@@H]1[C@H]3OC(=O)c1ccc(S(C)(=O)=O)cc1`, the IC50 in the experiment with MDA-MB-231 amounted to 1130 nM; in the experiment on HCC1806, 1170 nM; with DU-4475, 1280 nM; in the experiment on MDA-MB-468, 1380 nM.

With `C=C1C(=O)[C@@]23C(=O)[C@@H]4OC[C@]5(C=CCC(C)(C)[C@@H]45)[C@@H]2CC[C@@H]1[C@H]3OC(=O)/C=C/c1ccnc(OC)c1`, the IC50 was 1420 nM in the experiment with MDA-MB-231, 1930 nM with HCC1806, 1630 nM with DU-4475 and 1750 nM in the experiment with MDA-MB-468.

On to `C=C1C(=O)[C@@]23C(=O)[C@@H]4OC[C@]5(C=CCC(C)(C)[C@@H]45)[C@@H]2CC[C@@H]1[C@H]3OC(=O)CCc1ccccc1`, for which the IC50 in the experiment on MDA-MB-231 worked out at 1420 nM; in the experiment with HCC1806, 1620 nM; in the experiment with DU-4475, 1740 nM; with MDA-MB-468, 1940 nM.

For the compound `C=C1C(=O)[C@@]23C(=O)[C@@H]4OC[C@]5(C=CCC(C)(C)[C@@H]45)[C@@H]2CC[C@@H]1[C@H]3OC(=O)/C=C/c1ccc2c(c1)OCO2`, the IC50 with MDA-MB-231 came out at 2230 nM; in the experiment on HCC1806, 3020 nM; in the experiment with DU-4475 it was 2480 nM; in the experiment on MDA-MB-468, 2650 nM.

For `C=C1C(=O)[C@@]23C(=O)[C@@H]4OC[C@]5(C=CCC(C)(C)[C@@H]45)[C@@H]2CC[C@@H]1[C@H]3OC(=O)C=C(C)C`, the IC50 was 2090 nM with MDA-MB-231, 3060 nM in the experiment on HCC1806, 2720 nM with DU-4475 and 2810 nM in the experiment on MDA-MB-468.

Turning to `C=C1C(=O)[C@@]23C(=O)[C@@H]4OC[C@]5(C=CCC(C)(C)[C@@H]45)[C@@H]2CC[C@@H]1[C@H]3OC(=O)c1cnccn1`, the IC50 in the experiment on MDA-MB-231 came to 530 nM; in the experiment on HCC1806, 730 nM; in the experiment with DU-4475 it was 710 nM; in the experiment with MDA-MB-468, 760 nM.

For the compound `C=C1C(=O)[C@@]23C(=O)[C@@H]4OC[C@]5(C=CCC(C)(C)[C@@H]45)[C@@H]2CC[C@@H]1[C@H]3OC(=O)/C=C/c1ccc2occc2c1`, the IC50 in the experiment on MDA-MB-231 was 2160 nM; with HCC1806, 2050 nM; in the experiment on DU-4475, 2400 nM; in the experiment on MDA-MB-468, 2440 nM.

On to `C=C1C(=O)[C@@]23C(=O)[C@@H]4OC[C@]5(C=CCC(C)(C)[C@@H]45)[C@@H]2CC[C@@H]1[C@H]3OC(=O)C1CC1`, for which the IC50 with MDA-MB-231 came out at 760 nM; with HCC1806, 1730 nM; in the experiment on DU-4475 it was 1060 nM; in the experiment on MDA-MB-468 it was 990 nM.

Take `C=C1C(=O)[C@@]23C(=O)[C@@H]4OC[C@]5(CCCC(C)(C)[C@@H]45)[C@@H]2CC[C@@H]1[C@H]3O`: the IC50 was determined as 1740 nM in the experiment with MDA-MB-231, 2050 nM in the experiment on HCC1806, 1560 nM with DU-4475 and 2290 nM in the experiment with MDA-MB-468.

With `C=C1C(=O)[C@@]23C(=O)[C@@H]4OC[C@]5(C=CCC(C)(C)[C@@H]45)[C@@H]2CC[C@@H]1[C@H]3OC(=O)/C=C/c1ccoc1`, the IC50 with MDA-MB-231 was determined as 1280 nM; in the experiment with HCC1806, 1220 nM; in the experiment on DU-4475, 1380 nM; with MDA-MB-468, 1340 nM.

For `C=C1C(=O)[C@@]23C(=O)[C@@H]4OC[C@]5(C=CCC(C)(C)[C@@H]45)[C@@H]2CC[C@@H]1[C@H]3OC(=O)/C=C/c1ccsc1`, the IC50 is 2180 nM with MDA-MB-231, 2740 nM in the experiment with HCC1806, 2820 nM in the experiment on DU-4475 and 3070 nM in the experiment on MDA-MB-468.

For `C=C1C(=O)[C@@]23C(=O)C[C@@H]4C(C)(C)CCC[C@@]4(COC(C)=O)[C@@H]2CC[C@@H]1[C@H]3OC(C)=O`, the IC50 in the experiment with MDA-MB-231 was 3660 nM; in the experiment with HCC1806 it was 2870 nM; in the experiment with DU-4475, 1810 nM; with MDA-MB-468, 2490 nM.

Regarding `C=C1C(=O)[C@@]23C(=O)[C@@H]4OC[C@]5(C=CCC(C)(C)[C@@H]45)[C@@H]2CC[C@@H]1[C@H]3OC(=O)C1CCCCC1`, the IC50 amounted to 1600 nM in the experiment on MDA-MB-231, 2580 nM in the experiment on HCC1806, 2140 nM in the experiment on DU-4475 and 2400 nM with MDA-MB-468.

Consider `C=C1C(=O)[C@@]23C(=O)[C@@H]4OC[C@]5(C=CCC(C)(C)[C@@H]45)[C@@H]2CC[C@@H]1[C@H]3OC(=O)/C=C/c1ccccn1`, for which the IC50 in the experiment with MDA-MB-231 was 1450 nM; with HCC1806, 600 nM; in the experiment with DU-4475, 470 nM; in the experiment with MDA-MB-468, 1080 nM.

Take `C=C1C(=O)[C@@]23C(=O)[C@@H]4OC[C@]5(C=CCC(C)(C)[C@@H]45)[C@@H]2CC[C@@H]1[C@H]3OC(=O)/C=C/c1ccc(Cl)cc1`: the IC50 in the experiment with MDA-MB-231 turned out to be 1620 nM; with HCC1806 it was 1970 nM; in the experiment with DU-4475, 2150 nM; in the experiment on MDA-MB-468, 2340 nM.

Turning to `C=C1C(=O)[C@@]23C(=O)[C@@H]4OC[C@]5(C=CCC(C)(C)[C@@H]45)[C@@H]2CC[C@@H]1[C@H]3OC(=O)c1ccc(Cl)cc1`, the IC50 in the experiment on MDA-MB-231 was 1390 nM; in the experiment with HCC1806 it was 1930 nM; in the experiment on DU-4475, 1950 nM; in the experiment with MDA-MB-468 it was 1880 nM.

As for `C=C1C(=O)[C@@]23C(=O)[C@@H](OC(C)=O)[C@@H]4C(C)(C)CC=C[C@@]4(COC(C)=O)[C@@H]2CC[C@@H]1[C@H]3OC(C)=O`, the IC50 in the experiment with MDA-MB-231 stood at 3710 nM; in the experiment with HCC1806, 2420 nM; with DU-4475, 1900 nM; in the experiment on MDA-MB-468, 1660 nM.

As for `C=C1C(=O)[C@@]23C(=O)[C@@H]4OC[C@]5(C=CCC(C)(C)[C@@H]45)[C@@H]2CC[C@@H]1[C@H]3OC(=O)/C=C/c1ccccc1`, the IC50 in the experiment with MDA-MB-231 was 1370 nM; with HCC1806 it was 1550 nM; in the experiment on DU-4475, 1640 nM; in the experiment with MDA-MB-468, 1630 nM.

Regarding `C=C1C(=O)[C@@]23C(=O)[C@@H]4OC[C@]5(C=CCC(C)(C)[C@@H]45)[C@@H]2CC[C@@H]1[C@H]3OC(=O)c1ccc(OC)cc1`, the IC50 with MDA-MB-231 came to 1300 nM; with HCC1806 it was 1710 nM; with DU-4475, 1890 nM; in the experiment on MDA-MB-468, 2020 nM.
